Common to all, as to type: in vivo
For experiment [1], the system named is Diabrotica balteata (corn root worm). Kind of experiment: Activity against Diabrotica balteata, larvicide, feeding/residual contact activity, preventive (Example B2). The conditions noted are these: 120 h, maize sprouts sprayed, L2 larvae, 5 days incubation, read-out: activity (larval mortality, growth regulation). The protocol:
(§1) (Larvicide, Feeding/Residual Contact Activity, Preventive)
Maize sprouts, placed on an agar layer in 24-well micro titer plates (MTP) are treated with test solutions by spraying. After drying, the MTPs are infested with larvae (L2, 6-10 per well). After an incubation period of 5 days, samples are checked for larval mortality, and growth regulation.

The subject of experiment [2] is Spodoptera littoralis (Egyptian cotton leaf worm). Kind of experiment: Activity against Spodoptera littoralis, larvicide, feeding/residual contact activity, preventive (Example B1). The conditions noted are these: foliar, 72 h, cotton leaf discs sprayed, L1 larvae, 3 days after treatment, read-out: activity (mortality, repellent effect, feeding behaviour, growth regulation). An excerpt:
(Larvicide, Feeding/Residual Contact Activity, Preventive) Cotton leaf discs are placed on agar in a 24-well microtiter plate and sprayed with test solutions. After drying, the leaf discs are infested with 5 L1 larvae. The samples are checked for mortality, repellent effect, feeding behaviour, and growth regulation 3 days after treatment (DAT).

The subject of experiment [3] is Aedes aegypti (yellow fever mosquito). The experiment in a line: whole plant or invertebrate. Conditions: after 48 h, application rate of 200 ppm in ethanol, adult females, read-out: control of Aedes aegypti (mortality). The protocol: Test solutions, at an application rate of 200 ppm in ethanol, were applied to 12-well tissue culture plates. Once the deposits were dry, five, two to five days old adult female Aedes aegypti were added to each well, and sustained with a 10% sucrose solution in a cotton wool plug. Assessment of knockdown was made one hour after introduction, and mortality was assessed at 24 and 48 hours after introduction.

Experiment [4] deals with Spodoptera littoralis (Egyptian cotton leaf worm). The experiment in a line: Activity against Spodoptera littoralis, systemic activity (Example B3). The conditions noted are these: 120 h, systemic via lettuce roots in agar, 5 days after infestation, read-out: activity (mortality, repellent effect, feeding behavior, growth regulation). An excerpt: Test compounds were applied by pipette into 24 well plates and mixed with agar. Lettuce seeds were placed on the agar and the multi well plate is closed by another plate which contains also agar. After 7 days the roots have absorbed the compound and the lettuce has grown into the lid plate. The lettuce leaves were now cut off into the lid plate. Spodoptera eggs were pipetted through a plastic stencil on a humid gel blotting paper and the plate closed with it. The samples are checked for mortality, repellent effect, feeding behavior, and growth regulation 5 days after infestation.

The test system of experiment [5] is Plutella xylostella (diamond back moth). The experiment in a line: Activity against Plutella xylostella, larvicide, feeding/residual contact activity, preventive (Example B4). Conditions: 120 h, artificial diet, L2 larvae, 5 days incubation, read-out: activity (larval mortality, antifeedant, growth regulation). The protocol:
as §1
24-well microtiter plate (MTP) with artificial diet was treated with test solutions by pipetting. After drying, the MTPs were infested with L2 larvae (10-15 per well). After an incubation period of 5 days, samples were checked for larval mortality, antifeedant and growth regulation.

Experiment [6] has as its system Myzus persicae (green peach aphid). Kind of experiment: Activity against Myzus persicae, systemic/feeding activity, curative, mixed population (Example B6). Conditions: 144 h, roots of infested pea seedlings in test solution, 6 days after introduction. An excerpt:
(Systemic/Feeding Activity, Curative), Mixed Population
Roots of pea seedlings, infested with an aphid population of mixed ages, were placed directly in the test solutions. 6 days after introduction, samples were checked for mortality and special effects on the plant.

Experiment [7] shares this test system. Kind of experiment: Activity against Myzus persicae, feeding/residual contact activity, preventive, mixed population (Example B5). Conditions: foliar, 144 h, sunflower leaf discs sprayed, mixed-age aphids, 6 DAT. As to the method: (Feeding/Residual Contact Activity, Preventive), Mixed Population
Sunflower leaf discs were placed on agar in a 24-well microtiter plate and sprayed with test solutions.
After drying, the leaf discs were infested with an aphid population of mixed ages. After an incubation period of 6 DAT, samples were checked for mortality and special effects (e.g. phytotoxicity).

The test system of experiment [8] is Bemisia tabaci (cotton white fly). Kind of experiment: Activity against Bemisia tabaci, adulticide contact activity, preventative (Example B7). Conditions: foliar, 168 h, cotton leaf discs sprayed, adult white flies, 7 DAT. The protocol: (Adulticide Contact Activity, Preventative), Adult
Cotton leaf discs were placed on agar in a 24-well microtiter plate and sprayed with test solutions. After drying, the leaf discs were infested with adult white flies. After an incubation period of 7 DAT, samples were checked for mortality and special effects (e.g. phytotoxicity).

The test system of experiment [9] is Rhopalosiphum padi (bird cherry oat aphid). Kind of experiment: Seed treatment activity against Rhopalosiphum padi on barley (Example B8). Conditions: after 28 days, initial loading of 0.3 mg a.i. per seed. The protocol: Seed Treatment Activity Against Rhopalosiphum padi (Bird Cherry Oat Aphid) (Seed Treatment Systemic/Feeding Activity on Barley, Preventive, Initial and Residual Activity (Infestation 2 and 4 Weeks after Sowing)), Mixed Population
A treated barley seed is sown in a 350 ml pot filled with soil. Two weeks after sowing phytotoxicity is estimated and expressed in percentage compared to the control. Furthermore the barley seedling is infested with an aphid population of mixed stages. After an incubation period of seven days the grade of efficacy compared to the control is estimated and expressed in percentage. Treatments with all replicates having a level of efficacy over 90% are re-infested with aphids 28 days after sowing for determination of residual activity. Assessment procedures remain the same as described above.

This note sets out measurements from patent US9522913B2, “Pesticidally active bicyclic heterocycles with sulphur containing substituents” (Syngenta Participations AG, priority 2013, dated 2016).

Structures are written as SMILES. Bounds are passed on as bounds.

As a reminder, the mortality is the percentage killed. Regarding `CC/S(=N\C#N)c1cc(C(F)(F)F)cnc1-c1nc2cc(C(F)(F)F)cnc2n1C` (stereo not shown) [P1.1, [ethyl-[2-[3-methyl-6-(trifluoromethyl)imidazo[4,5-b]pyridin-2-yl]-5-(trifluoromethyl)-3-pyridyl]-λ^4-sulfanylidene]cyanamide], the mortality at 400 ppm in [1] is over 80%.
For the compound `CCS(=O)(=NC#N)c1cc(C(F)(F)F)cnc1-c1nc2cc(C(F)(F)F)cnc2n1C` (stereo not shown) [P1.2, [ethyl-[2-[3-methyl-6-(trifluoromethyl)imidazo[4,5-b]pyridin-2-yl]-5-(trifluoromethyl)-3-pyridyl]-oxo-λ^6sulfanylidene]cyanamide], the mortality at 400 ppm in experiment [2] and in [1] was over 80% each time.
With `CCS(=O)(=NC(=O)C(F)(F)F)c1cc(C(F)(F)F)cnc1-c1nc2cc(C(F)(F)F)cnc2n1C` (stereo not shown) [P1.3, N-[ethyl-[2-[3-methyl-6-(trifluoromethyl)imidazo[4,5-b]pyridin-2-yl]-5-(trifluoromethyl)-3-pyridyl]-oxo-λ^6-sulfanylidene]-2,2,2-trifluoro-acetamide], the mortality at 400 ppm in experiment [2], in experiment [5], in experiment [7] and in experiment [1] was over 80% throughout. Also, the mortality at 200 ppm in experiment [3] was at least 80%. Further, in experiment [4], the mortality at 12.5 ppm was at least 80%. The compound further had a mortality at 24 ppm in [6] of at least 80%.
As to `CCS(=N)(=O)c1cc(C(F)(F)F)cnc1-c1nc2cc(C(F)(F)F)cnc2n1C` (stereo not shown) [P1.4, ethyl-imino-[2-[3-methyl-6-(trifluoromethyl)imidazo[4,5-b]pyridin-2-yl]-5-(trifluoromethyl)-3-pyridyl]-oxo-λ^6-sulfane], the mortality at 400 ppm in [8], in experiment [2], in [5] and in experiment [7] was over 80% each time. Further, in [4], the mortality at 12.5 ppm is at least 80%. Further, the “control of Rhopalosiphum padi (efficacy compared to the control)” value in experiment [9] is reported as “at least 80%”. Besides, the mortality at 24 ppm in experiment [6] was at least 80%.
As for `CCS(=O)(=NC(N)=O)c1cc(C(F)(F)F)cnc1-c1nc2cc(C(F)(F)F)cnc2n1C` (stereo not shown) [P1.5, [ethyl-[2-[3-methyl-6-(trifluoromethyl)imidazo[4,5-b]pyridin-2-yl]-5-(trifluoromethyl)-3-pyridyl]-oxo-λ^6sulfanylidene]urea], the mortality at 200 ppm in experiment [3] is at least 80%. Besides, the mortality at 400 ppm in experiment [1] is over 80%.
For the compound `CCS(=O)(=NC)c1cc(C(F)(F)F)cnc1-c1nc2cc(C(F)(F)F)cnc2n1C` (stereo not shown) [P1.6, ethyl-methylimino-[2-[3-methyl-6-(trifluoromethyl)imidazo[4,5-b]pyridin-2-yl]-5-(trifluoromethyl)-3-pyridyl]-oxo-λ^6-sulfane], the mortality at 400 ppm in experiment [8], in experiment [2], in experiment [5], in experiment [7] and in experiment [1] was over 80% in each case. In addition, the mortality at 200 ppm in experiment [3] is at least 80%. Further, the mortality at 12.5 ppm in experiment [4] was at least 80%. The mortality at 24 ppm in [6] was at least 80%.
Take `CCC(=O)N=S(=O)(CC)c1cc(C(F)(F)F)cnc1-c1nc2cc(C(F)(F)F)cnc2n1C` (stereo not shown) [P1.7, N-[ethyl-[2-[3-methyl-6-(trifluoromethyl)imidazo[4,5-b]pyridin-2-yl]-5-(trifluoromethyl)-3-pyridyl]-oxo-λ^6-sulfanylidene]propanamide]: the mortality at 400 ppm in experiment [8], in [2], in experiment [5] and in [7] was over 80% each time. In addition, in experiment [3], the mortality at 200 ppm is at least 80%. For the same compound, the mortality at 12.5 ppm in [4] is at least 80%.
In the case of `CCS(=O)(=NC(=O)OC)c1cc(C(F)(F)F)cnc1-c1nc2cc(C(F)(F)F)cnc2n1C` (stereo not shown) [P1.8, methyl N-[ethyl-[2-[3-methyl-6-(trifluoromethyl)imidazo[4,5-b]pyridin-2-yl]-5-(trifluoromethyl)-3-pyridyl]-oxo-λ^6-sulfanylidene]carbamate], the mortality at 400 ppm in experiment [8], in [2], in experiment [5] and in experiment [7] was over 80% throughout. In addition, the mortality at 200 ppm in experiment [3] is at least 80%. In addition, the mortality at 12.5 ppm in experiment [4] was at least 80%. Moreover, in [6], the mortality at 24 ppm is at least 80%.
On to `CCS(=O)(=NC=O)c1cc(C(F)(F)F)cnc1-c1nc2cc(C(F)(F)F)cnc2n1C` (stereo not shown) [P1.10, N-[ethyl-[2-[3-methyl-6-(trifluoromethyl)imidazo[4,5-b]pyridin-2-yl]-5-(trifluoromethyl)-3-pyridyl]-oxo-λ^6sulfanylidene]formamide], for which the mortality at 400 ppm in experiment [8], in [2], in [5] and in [7] was over 80% each time. The mortality at 12.5 ppm in [4] is at least 80%. This compound also had a mortality at 24 ppm in [6] of at least 80%.
